Laboratory results published in US8530388B2, “Cyclopentadione derived herbicides” (Syngenta Limited, priority 2009, dated 2013).

Legend:
Assay type in all cases: in vivo
[1] = system: Alopecurus myosuroides (ALOMY); experiment: Pre-emergence herbicidal activity, glasshouse pot test; details: 312 h, Rate 250 g/ha, sprayed one day after sowing, evaluated after 13 days, 100=total damage to plant, 0=no damage to plant
Procedure: (§1) Seeds of a variety of test species were sown in standard soil in pots. After cultivation for one day (pre-emergence) or after 8 days cultivation (post-emergence) under controlled conditions in a glasshouse (at 24/16° C., day/night; 14 hours light; 65% humidity), the plants were sprayed with an aqueous spray solution derived from the formulation of the technical active ingredient in acetone/water (50:50) solution containing 0.5% Tween 20 (polyoxyethelyene sorbitan monolaurate, CAS RN 9005-64-5). The test plants were then grown in a glasshouse under controlled conditions in a glasshouse (at 24/16° C., day/night; 14 hours light; 65% humidity) and watered twice daily. After 13 days for pre and post-emergence, the test was evaluated (100=total damage to plant; 0=no damage to plant). Test plants: Setaria faberi (SETFA), Lolium perenne (LOLPE), Alopecurus myosuroides (ALOMY), Echinochloa crus-galli (ECHCG), and Avena fatua (AVEFA) Pre-Emergence Activity

Avena fatua (AVEFA) [2] = experiment: as above; details: 312 h, Rate 250 g/ha, sprayed one day after sowing, evaluated after 13 days, 100=total damage to plant, 0=no damage to plant
Procedure: as §1

[3] = system: Echinochloa crus-galli (ECHCG); experiment: as above; details: 312 h, Rate 250 g/ha, sprayed one day after sowing, evaluated after 13 days, 100=total damage to plant, 0=no damage to plant
Procedure: as §1

Lolium perenne (LOLPE) [4] = experiment: as above; details: 312 h, Rate 250 g/ha, sprayed one day after sowing, evaluated after 13 days, 100=total damage to plant, 0=no damage to plant
Procedure: as §1

[5] = system: Alopecurus myosuroides (ALOMY); experiment: Post-emergence herbicidal activity, glasshouse pot test; details: 312 h, rate 250 g/ha, evaluated after 13 days, read-out: Post-emergence activity, ALOMY (100=total damage to plant; 0=no damage to plant)
Procedure: as §1, with “plant).” for “plant). Test plants: Setaria faberi (SETFA), Lolium perenne (LOLPE), Alopecurus myosuroides (ALOMY), Echinochloa crus-galli (ECHCG), and Avena fatua (AVEFA) Pre-Emergence Activity”
(§2) Test plants: Setaria faberi (SETFA), Lolium perenne (LOLPE), Alopecurus myosuroides (ALOMY), Echinochloa crus-galli (ECHCG), and Avena fatua (AVEFA)

Avena fatua (AVEFA) [6] = experiment: as above; details: 312 h, rate 250 g/ha, evaluated after 13 days, read-out: Post-emergence activity, AVEFA (100=total damage to plant; 0=no damage to plant)
Procedure: as §1, with “plant).” for “plant). Test plants: Setaria faberi (SETFA), Lolium perenne (LOLPE), Alopecurus myosuroides (ALOMY), Echinochloa crus-galli (ECHCG), and Avena fatua (AVEFA) Pre-Emergence Activity”
as §2

[7] = system: Echinochloa crus-galli (ECHCG); experiment: as above; details: 312 h, rate 250 g/ha, evaluated after 13 days, read-out: Post-emergence activity, ECHCG (100=total damage to plant; 0=no damage to plant)
Procedure: as §1, with “plant).” for “plant). Test plants: Setaria faberi (SETFA), Lolium perenne (LOLPE), Alopecurus myosuroides (ALOMY), Echinochloa crus-galli (ECHCG), and Avena fatua (AVEFA) Pre-Emergence Activity”
as §2

Lolium perenne (LOLPE) [8] = experiment: as above; details: 312 h, rate 250 g/ha, evaluated after 13 days, read-out: Post-emergence activity, LOLPE (100=total damage to plant; 0=no damage to plant)
Procedure: as §1, with “plant).” for “plant). Test plants: Setaria faberi (SETFA), Lolium perenne (LOLPE), Alopecurus myosuroides (ALOMY), Echinochloa crus-galli (ECHCG), and Avena fatua (AVEFA) Pre-Emergence Activity”
as §2

Row | SMILES | pest or weed control at 250 g/ha [1] [%] | pest or weed control at 250 g/ha (Avena fatua (AVEFA) [2]) [%] | pest or weed control at 250 g/ha [3] [%] | pest or weed control at 250 g/ha (Lolium perenne (LOLPE) [4]) [%] | pest or weed control at 250 g/ha [5] [%] | pest or weed control at 250 g/ha (Avena fatua (AVEFA) [6]) [%] | pest or weed control at 250 g/ha [7] [%] | pest or weed control at 250 g/ha (Lolium perenne (LOLPE) [8]) [%]
1 | CCc1ccc(-c2cc(Cl)c(F)cc2F)cc1C1=C(O)CCC1=O [Compound T-22] | 0 | 0 | 30 | 10 | 30 | 10 | 60 | 10
2 | CCc1ccc(-c2ccc(Cl)c(F)c2Cl)cc1C1=C(O)CCC1=O [Compound T-11] | 20 | 10 | 50 | 30 | 60 | 30 | 90 | 50
3 | CCc1ccc(-c2ccc(Cl)cc2Cl)cc1C1=C(O)CCC1=O [Compound T-14] | 10 | 0 | 50 | 30 | 30 | 30 | 70 | 30
4 | CCc1ccc(-c2ccc(Cl)c(C(F)(F)F)c2F)cc1C1=C(O)CCC1=O [Compound T-19] | 0 | 0 | 10 | 20 | 60 | 20 | 70 | 60
5 | O=C1CCC(O)=C1c1cc(-c2ccc(Cl)cc2Cl)ccc1C1CC1 [Compound T-24, 2-(2′,4′-dichloro-4-cyclopropylbiphenyl-3-yl)-cyclopentane-1,3-dione] | 0 | 0 | 80 | 50 | 30 | 10 | 100 | 50
6 | CCc1ccc(-c2c(F)cc(Cl)cc2F)cc1C1=C(O)CCC1=O [Compound T-10] | 0 | 0 | 0 | 0 | 30 | 50 | 90 | 40
7 | CCc1ccc(-c2ccc(Cl)cc2)cc1C1=C(O)C2CSCC2C1=O (centres unmarked) [Compound T-2, 5-(4′-Chloro-4-ethylbiphenyl-3-yl)-tetrahydrocyclopenta[c]thiophene-4,6-dione] | 0 | 0 | 70 | 0 | 20 | 80 | 100 | 0
8 | CCc1ccc(-c2ccc(C(F)(F)F)cc2)cc1C1=C(O)CCC1=O [Compound T-18] | 50 | 30 | 50 | 30 | 80 | 90 | 100 | 70
9 | CCc1ccc(-c2ccc(F)cc2)cc1C1=C(O)CCC1=O [Compound T-17] | 40 | 0 | 80 | 60 | 50 | 40 | 70 | 50
10 | CCc1ccc(-c2ccc(Cl)cc2F)cc1C1=C(O)CCC1=O [Compound T-3, 2-(4′-chloro-4-ethyl-2′-fluorobiphenyl-3-yl)cyclopentane-1,3-dione] | 30 | 60 | 100 | 90 | 30 | 90 | 100 | 40
11 | CCc1ccc(-c2ccc3ccccc3c2)cc1C1=C(O)CCC1=O [Compound T-7] | 0 | 0 | 20 | 10 | 10 | 10 | 20 | 30
12 | CCc1ccc(-c2ccc(Cl)c(C)c2)cc1C1=C(O)CCC1=O [Compound T-15] | 0 | 0 | 0 | 0 | 10 | 0 | 30 | 30
13 | CCc1ccc(-c2cc(F)c(Cl)c(F)c2)cc1C1=C(O)CCC1=O [Compound T-21] | 40 | 10 | 40 | 100 | 30 | 20 | 40 | 30
14 | CCc1ccc(-c2ccc(Cl)c(Cl)c2Cl)cc1C1=C(O)CCC1=O [Compound T-20] | 0 | 0 | 30 | 10 | 20 | 10 | 70 | 20
15 | CCc1ccc(-c2ccc(Cl)c(F)c2F)cc1C1=C(O)CCC1=O [Compound T-12] | 40 | 30 | 50 | 50 | 50 | 50 | 90 | 50
16 | CCc1ccc(-c2ccc(Cl)c(F)c2)cc1C1=C(O)CCC1=O [Compound T-9] | 60 | 50 | 90 | 80 | 30 | 60 | 100 | 60
17 | CCc1ccc(-c2ccc(Cl)c(C(F)(F)F)c2)cc1C1=C(O)CCC1=O [Compound T-8] | 30 | 0 | 60 | 60 | 50 | 30 | 100 | 60
18 | CCc1ccc(-c2ccc(Cl)c(Cl)c2F)cc1C1=C(O)CCC1=O [Compound T-13] | 0 | 0 | 0 | 0 | 10 | 0 | 60 | 40
19 | CCc1ccc(-c2ccc(Cl)cc2C)cc1C1=C(O)CCC1=O [Compound T-4] | 50 | 10 | 50 | 60 | 50 | 0 | 70 | 30
20 | CCc1ccc(-c2ccc(Cl)cc2)cc1C1=C(O)CCC1=O [Compound T-1, 2-(4′-chloro-4-ethylbiphen-3-yl)-1,3-cyclopentanedione] | 90 | 70 | 100 |  | 80 | 90 | 100 | 
